Key:
BTK recombinant protein = BTK recombinant protein (Homo sapiens (Human), UniProt Q06187); test: Determination of biochemical BTK (Z'-LYTE kinase assay)
From the text: Example 2 Determination of Biochemical BTK
(§1) 1. Reagents and Materials
BTK recombinant protein: Invitrogen, Cat #PV3363;
Z′-LYTE® kinase test kit-tyrosine 1 peptide: Invitrogen, Cat #PV3190;
Z′-LYTE® biochemical assay employs a fluorescence resonance energy transfer (FRET)—based, coupled-enzyme format and is based on the differential sensitivity of phosphorylated and non-phosphorylated peptides to proteolytic cleavage. Both ends of the short peptide substrate are labeled with two fluorescent groups to form a FRET paired combination. In the primary reaction (the Kinase Reaction), the kinase transfers the γ-phosphate of ATP to a single […] residue on the short peptide substrate. In the secondary reaction (the development reaction), the non-phosphorylated short peptides were recognized and cleaved by a site-specific protease (the development reagent). Phosphorylated short peptides can resist such cleavage. Cleavage of short peptides can disrupt the donor (such as coumarin) and receptor fluorophores (fluorescein) on the short peptides, while the phosphorylated short peptides can maintain FRET. The calculation method of the ratio is as follows, and the ratio of the respective emission signals generated by the donor fluorophores emitted (after excitation at 400 nm) to the receptors is calculated. Emission signal ratio=emitted light by coumarin (445 nm)/emitted light by fluorescein (520 nm). If the FRET short peptide is phosphorylated (such as no kinase inhibitor), the emitted light ratio will remain in a lower level. If the FRET short peptide is non-phosphorylated (such as kinase inhibitor), the emitted light ratio will be in a higher level. In this way, the inhibitory effects of different compound inhibitors on BTK kinase activity would be distinguished.
The experiment were carried out according to the instructions of the Z′-LYTE® kinase test kit-tyrosine 1 peptide. Reagent preparation: 1.33× kinase buffer: 5× kinase buffer was diluted with water to 1.33× kinase buffer; an enzyme solution: the kinase was dissolved in 1.33× kinase buffer with the final working concentration being 3.32 nM; a short peptide solution: a short peptide stock solution (1 mM dissolved in DMSO) was dissolved in 1.33× kinase buffer with the final working concentration being 2 μM; Z′-LYTE Tyr01 phosphorylated short peptide solution, 0.6 μl of stock solution (1 mM dissolved in DMSO) was dissolved in 149.4 μl of 1.33× kinase buffer; an ATP solution: an ATP stock solution (10 mM aqueous solution) was dissolved in 1.33× kinase buffer with the final working concentration being 32 μM; a color-developing solution: color-developing solution B was dissolved in color-developing buffer with the final working concentration being 1× color-developing solution; 4× compound preparation: the compound was diluted in 3-fold gradient concentration to finally obtain 4% DMSO aqueous solution containing different concentrations of the compound, with the final working concentration being 3000, 1000, 333.33, 111.11, 37.04, 12.35, 4.12, 1.37 nM, 8 concentration points in total.
Specific steps of the experiment: In the experiment, there were three control groups, each with 8 replicate wells, which were C1 100% inhibition group (no ATP), C2 0% inhibition group (with ATP), and C3 100% phosphorylation group, respectively. 2.5 μl of serially diluted compound was added to each well of a 384-well plate, with double replicate wells, and 4% DMSO solution was added to wells C1, C2, and C3. After that, except for wells C3, 2.5 μl of BTK enzyme solution was added to each remaining well, which was left to stand at 4° C. for 30 minutes. After that, except for wells C3, 2.5 μl of short peptide solution was added to each well, and 5 μl of phosphorylated short peptide solution was added to each of wells C3. 2.5 μl of 1.33× kinase buffer was added to each of wells C1 and C3, and 2.5 μl of ATP solution was added to each of the remaining wells. […]

[1] = molecular target: phosphorylated BTK in Ramos cells (Homo sapiens (Human), UniProt Q06187); test: Determination of phosphorylated BTK in Ramos cells (BTK phospho-Y223 HTRF); type: cell-based; conditions: anti-human IgM + hydrogen peroxide stimulation
Description: Determination of Phosphorylated BTK in Ramos Cells
as §1
Ramos cells: Ramos cells were purchased from American Standard Biological Collection Center ATCC Cell Bank, PRMI 1640 medium containing L-glutamine, 1.5 g/L of sodium bicarbonate, 2.383 g/L of HEPES solution, 0.11 g/L of sodium pyruvate and 4.5 g/L of glucose was used, added 10% fetal bovine serum FBS, and placed in a 5% CO2, 37° C. cell incubator for normal culture;
Phosphorylated BTK HTRF detection kit (BTK phospho-Y223 HTRF kit): Cisbio, Cat #63ADK017PEH;
Ramos cells were starved in PRMI 1640 medium with 1% FBS for 2 hours. The starved Ramos cells were diluted with Hank's balanced salt solution to 5.0×10^6 cells/ml, seeded in a 96-well plate with 20 μL/well (1.0×10^5 cells/well), and cultured in a 5% CO2, 37° C. cell incubator. After culturing for 1 hour, the test compound was diluted with Hank's balanced salt solution in 4-fold gradient to the corresponding concentrations, and then 5 μL/well of the diluted test compound with different concentrations (the final concentrations of the test compound were 3.0, 0.75, 0.188, 0.047, 0.012, 0.0029, 0.0007 and 0.00018 μM, and the final concentration of DMSO was 0.3%, double replicate wells) or 5 μL/well of control solution (1.5% DMSO, 8 replicate wells) were added to 20 μL/well of cell culture system, which incubated together for another hour, then 5 μL/well of a mixed solution of human immunoglobulin M (final concentration was 10 μg/mL) and hydrogen peroxide (final concentration was 3.3 mM) diluted with Hank's balanced salt solution was added to the treating wells for the test compound and the control treating wells for anti-human immunoglobulin M, and 5 μL/well of Hank's balanced salt solution was added to negative control treating wells. The plate was incubated in a 5% CO2, 37° C. cell incubator for 10 minutes.
10 μL/well of cell lysis buffer was added to each well of a 96-well plate, which was mixed well and lysed at room temperature for 30 minutes. 16 μL/well of lysis buffer was pipetted to a new 384 well plate, and then added 4 μL/well of phosphorylated BTK antibody, centrifuged (1000 rpm) for 1 minute, then shaken for 1 minute, further centrifuged (1000 rpm) for 1 minute, and finally placed in a constant temperature incubator overnight. Detection was performed on the next day.
The 384 well plate incubated overnight in the constant temperature incubator was taken out to detect the luminescence signal using the Envision microwell plate reader at the […]. The reading value at 665 nm/615 nm of each well multiplied by 104 was used as the signal value of each well.
The average signal value of the wells supplemented with the mixed solution of human immunoglobulin M (final concentration was 10 μg/mL) and hydrogen peroxide (final concentration was 3.3 mM) without the test compound was regarded as the high value, and the average signal value of the wells without immunoglobulin M stimulation and without the test compound was regarded as the low value. According to the signal value in each well, the inhibition ratio (%) of each concentration of compounds was calculated, and the 205 model in XL-Fit 5.3 software (ID Business Solutions Limited) was used to obtain an IC50 value.
The inhibition ratio is calculated as follows: inhibition ratio (%)=100%−{(treating well for the test compound−negative control treating well)/(control treating well for anti-human immunoglobulin M−negative control treating well)}×100%, wherein,
Treating well for the test compound: represents the signal value of Ramos cells treated with anti-human immunoglobulin M, hydrogen peroxide and the test compound.
Control treating well for anti-human immunoglobulin M: represents the signal value of Ramos cells treated with anti-human immunoglobulin M, hydrogen peroxide but without the test compound. […]

Sequence of BTK recombinant protein (Q06187 whole entry): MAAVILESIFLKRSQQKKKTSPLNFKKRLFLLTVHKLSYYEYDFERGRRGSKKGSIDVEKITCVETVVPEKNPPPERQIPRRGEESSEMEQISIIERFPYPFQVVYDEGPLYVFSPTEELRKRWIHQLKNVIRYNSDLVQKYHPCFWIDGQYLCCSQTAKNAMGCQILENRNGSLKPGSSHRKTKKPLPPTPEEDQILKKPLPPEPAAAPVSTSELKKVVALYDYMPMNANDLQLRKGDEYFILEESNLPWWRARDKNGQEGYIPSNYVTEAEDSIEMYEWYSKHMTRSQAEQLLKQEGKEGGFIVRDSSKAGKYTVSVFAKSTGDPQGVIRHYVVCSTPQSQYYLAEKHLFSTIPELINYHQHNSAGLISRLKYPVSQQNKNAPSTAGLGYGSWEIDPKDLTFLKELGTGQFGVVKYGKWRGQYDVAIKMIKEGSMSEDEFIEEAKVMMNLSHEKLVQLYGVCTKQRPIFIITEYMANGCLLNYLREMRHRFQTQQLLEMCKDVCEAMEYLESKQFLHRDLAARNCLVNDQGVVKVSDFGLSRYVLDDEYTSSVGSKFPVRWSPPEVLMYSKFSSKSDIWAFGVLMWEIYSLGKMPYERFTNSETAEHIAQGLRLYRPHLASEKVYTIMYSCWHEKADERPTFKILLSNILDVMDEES
Sequence of phosphorylated BTK in Ramos cells (Q06187 whole entry): as above

| SMILES | IC50 (BTK recombinant protein) [nM] | IC50 [1] [nM] |
| --- | --- | --- |
| CCN(CCOC)c1ccc(Nc2cc(-c3ccnc(-n4ccn5c6c(cc5c4=O)CC(C)(C)C6)c3CO)cn(C)c2=O)nc1 [Compound 1, 2-(5-((5-(ethyl (2-methoxyethyl)amino)pyridin-2-yl)amino)-3′-(hydroxymethyl)-1-methyl-6-oxo-1,6-dihydro-[3,4′-bispyridin]-2′-yl)-7,7-dimethyl-7,8-dihydro-2H-cyclopenta[4,5]pyrrolo[1,2-a]pyrazin-1(6H)-one] | 35 | 5 |
| CCn1cc(Nc2nc(-c3ccnc(-n4ccn5c6c(cc5c4=O)CC(C)(C)C6)c3CO)cn(C)c2=O)nn1 [Compound 3] | 224 | 339 |
| CC(C)n1cc(Nc2nc(-c3ccnc(-n4ccn5c6c(cc5c4=O)CC(C)(C)C6)c3CO)cn(C)c2=O)nn1 [Compound 4] | 756 | 480 |
| CC(C)n1cc(Nc2cc(-c3ccnc(-n4ccn5c6c(cc5c4=O)CC(C)(C)C6)c3CO)cn(C)c2=O)nn1 [Compound 6] | 2 | 2 |
| CC(C)n1cc(Nc2cc(-c3ccnc(-n4ccn5c6c(cc5c4=O)CC(C)(C)C6)c3CO)nn(C)c2=O)nn1 [Compound 7] | < 1 | 3 |
| C[C@H]1COCCN1c1ccc(Nc2cc(-c3ccnc(-n4ccn5c6c(cc5c4=O)CC(C)(C)C6)c3CO)cn(C)c2=O)nc1 [Compound 10] | 18 | 10 |
| Cc1c(-c2ccnc(-n3ccn4c5c(cc4c3=O)CC(C)(C)C5)c2CO)cc(Nc2ccc(N3CCN(C4COC4)C[C@@H]3C)cn2)c(=O)n1C [Compound 11] | 106 | 155 |
| Cc1c(-c2cc(Nc3ccc(N4CCN(C5COC5)C[C@@H]4C)cn3)c(=O)n(C)c2)ccnc1-n1ccn2c3c(cc2c1=O)CC(C)(C)C3 [Compound 12] | 230 | 13 |
| CCn1nc(-c2ccnc(-n3ccn4c5c(cc4c3=O)CC(C)(C)C5)c2CO)cc(Nc2ccc(N3CCN(C4COC4)C[C@@H]3C)cn2)c1=O [Compound 14] | 51 | 14 |
| CN1CCn2nc(Nc3cc(-c4ccnc(-n5ccn6c7c(cc6c5=O)CC(C)(C)C7)c4CO)cn(C)c3=O)cc2C1=O [Compound 15] | 17 | 12 |

Second part, the compound after the results:

| IC50 (BTK recombinant protein) [nM] | IC50 [1] [nM] | SMILES |
| --- | --- | --- |
| 8 | 34 | C[C@H]1CN(C2COC2)CCN1c1ccc(Nc2cc(-c3ccnc(-n4ccn5c6c(cc5c4=O)CC(C)(C)C6O)c3CO)cn(C)c2=O)nc1 (mixture of isomers) [Compound 182] |
| 14 | 28 | CC1CCc2c(cc3c(=O)n(-c4nccc(-c5cc(Nc6ccc(N7CCN(C8COC8)C[C@@H]7C)cn6)c(=O)n(C)c5)c4CO)ccn23)C1 (mixture of isomers) [Compound 187] |
| 6 | 2 | [2H]C(O)c1c(-c2cc(Nc3ccc(N4CCN(C5([2H])COC5)C[C@@H]4C)cn3)c(=O)n(C)c2)ccnc1-n1ccn2c3c(cc2c1=O)CC(C)(C)C3 (mixture of isomers) [Compound 101] |
| 2 | 2 | COCCN1CCn2nc(Nc3cc(-c4ccnc(-n5ncn6c7c(cc6c5=O)CC(C)(C)C7)c4CO)cn(C)c3=O)cc2C1C (racemic) [Compound 110, (RS)-2-(3′-(hydroxymethyl)-5-((5-(2-methoxyethyl)-4-methyl-4,5,6,7-tetrahydropyrazolo[1,5-a]pyrazin-2-yl)amido)-1-methyl-6-oxo-1,6-dihydro-[3,4′-bispyridin]-2′-yl)-7,7-dimethyl-7,8-dihydro-2H-cyclopenta[4,5]pyrrolo[1,2-d][1,2,4]triazin-1(6H)-one] |
| 23 | 21 | COCCN1CCn2nc(Nc3cc(-c4ccnc(-n5nc(C)n6c7c(cc6c5=O)CC(C)(C)C7)c4CO)cn(C)c3=O)cc2C1C (racemic) [Compound 121] |
| 19 | 70 | CC(O)CN(CCNc1ccc(Nc2cc(-c3ccnc(-n4ccn5c6c(cc5c4=O)CC(C)(C)C6)c3CO)cn(C)c2=O)nc1)C1COC1 (racemic) [Compound 179] |
| 4 | 11 | COCC(C)N1CCN(c2ccc(Nc3cc(-c4ccnc(-n5ncn6c7c(cc6c5=O)CC(C)(C)C7)c4CO)cn(C)c3=O)nc2)[C@@H](C)C1 (mixture of isomers) [Compound 219] |
| 24 | 4 | C[C@H]1CN2CCOCC2CN1c1ccc(Nc2cc(-c3ccnc(-n4ccn5c6c(cc5c4=O)CC(C)(C)C6)c3CO)cn(C)c2=O)nc1 (mixture of isomers) [Compound 236] |
| 4 | 4 | CC(C)n1cc(Nc2cc(-c3ccnc(-n4ccn5c6c(cc5c4=O)CC(C)(C)C6)c3CO)cn3ncnc23)nn1 [Compound 18] |
| 8 | 30 | Cn1cc(Nc2cc(-c3ccnc(-n4ccn5c6c(cc5c4=O)CC(C)(C)C6)c3CO)nn(C)c2=O)nn1 [Compound 29] |
| 9 | 8 | Cn1cc(-c2ccnc(-n3ccn4c5c(cc4c3=O)CC(C)(C)C5)c2CO)cc(Nc2cn(CC(F)(F)F)nn2)c1=O [Compound 30] |
| 17 | 30 | Cn1nc(-c2ccnc(-n3ccn4c5c(cc4c3=O)CC(C)(C)C5)c2CO)cc(Nc2cn(CCF)nn2)c1=O [Compound 32] |
| 25 | 26 | Cn1nc(-c2ccnc(-n3ccn4c5c(cc4c3=O)CC(C)(C)C5)c2CO)cc(Nc2cn(CC(F)(F)F)nn2)c1=O [Compound 33] |

From US11478474B2, “2-(3′-(hydroxymethyl)-1-methyl-5-((5-(2-methyl-4-(oxetan-3-yl)piperazin-1-yl)pyridin-2-yl)amino)-6-oxo-1,6-dihydro-[3,4′-bipyridin]-2′-yl)-7,7-dimethyl-7,8-dihydro-2H-cyclopenta[4,5]pyrrolo[1,2-a]pyrazin-1(6H)-one as a BTK inhibitor” (HUTCHISON MEDIPHARMA LIMITED, priority 2020, dated 2022)
